Measurements reported in patent publication US20230203060A1 (GENFLEET THERAPEUTICS (SHANGHAI) INC., priority 2020, published 2023).

These compounds were tested against T1, KRAS G12C (Homo sapiens, UniProt P01116, G12C) (assay: KRAS G12C NEA-HTRF experiment (SOS1-catalyzed displacement of GDP by GTP)).
T1 construct: purchased Reactionbiology
Type: biochemical
Outline: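 His-tagged KRAS G12C preloaded with DY647-GDP was preincubated 15 min at 20 °C with compound, then exchanged with SOS1 (0.2 μM working solution) and GTP (200 μM working solution) for 2 h at 20 °C in the dark. HTRF 665/615 nm ratio with anti-His-Tb was normalised to T0 and no-compound controls; IC50 by four-parameter fit.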

T1 sequence (P01116 1-188 isoform P01116-2 G12C): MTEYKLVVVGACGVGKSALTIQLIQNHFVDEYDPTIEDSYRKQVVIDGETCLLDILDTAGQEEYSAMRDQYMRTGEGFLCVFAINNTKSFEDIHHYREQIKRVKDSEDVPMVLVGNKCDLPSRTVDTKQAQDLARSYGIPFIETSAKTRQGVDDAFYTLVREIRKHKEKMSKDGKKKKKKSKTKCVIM

Structure (SMILES)	IC50 [µM]
C=CC(=O)N1CCN2C(=O)c3c(N[C@H](C)c4ccccc4)nc(-c4c(O)cccc4F)c(Cl)c3OC[C@H]2C1 [Z28, (6aR)-8-acryloyl-4-chloro-3-(2-fluoro-6-hydroxyphenyl)-1-(((R)-1-phenylethyl)amino)-6,6a,7,8,9,10-hexahydro-12H-pyrazino[2,1-c]pyrido[3,4-f][1,4]oxazepin-12-one]	0.113
C=CC(=O)N1CCN2C(=O)c3c(N4CCOC[C@@H]4C)nc(-c4c(O)cccc4F)c(Cl)c3OC[C@H]2C1 [Z32]	0.142
C=CC(=O)N1CCN2C(=O)c3c(N4CCOC(C)(C)C4)nc(-c4c(O)cccc4F)c(Cl)c3OC[C@H]2C1 [Z37, (6aR)-8-acryloyl-4-chloro-1-(2,2-dimethylmorpholino)-3-(2-fluoro-6-hydroxyphenyl)-6,6a,7,8,9,10-hexahydro-12H-pyrazino[2,1-c]pyrido[3,4-f][1,4]oxazepin-12-one]	0.167
C=CC(=O)N1CCN2C(=O)c3c(OC4CCCN(C)C4)nc(-c4c(O)cccc4F)c(Cl)c3OC[C@H]2C1 (stereo partly drawn) [Z43, (6aR)-8-acryloyl-4-chloro-3-(2-fluoro-6-hydroxyphenyl)-1-((1-methylpiperidin-3-yl)oxy)-6,6a,7,8,9,10-hexahydro-12H-pyrazino[2,1-c]pyrido[3,4-f][1,4]oxazepin-12-one]	0.171
C=CC(=O)N1CCN2C(=O)c3c(N4CCC[C@H]4C)nc(-c4c(O)cccc4F)c(Cl)c3OC[C@H]2C1 [Z48, (6aR)-8-acryloyl-1-((R)-2-methylpyrrolidin-1-yl)-4-chloro-3-(2-fluoro-6-hydroxyphenyl)-6,6a,7,8,9,10-hexahydro-12H-pyrazino[2,1-c]pyrido[3,4-f][1,4]oxazepin-12-one]	0.15
C=CC(=O)N1CCN2C(=O)c3c(N4CCC[C@@H]4C)nc(-c4c(O)cccc4F)c(Cl)c3OC[C@H]2C1 [Z49, (6aR)-8-acryloyl-1-((S)-2-methylpyrrolidin-1-yl)-4-chloro-3-(2-fluoro-6-hydroxyphenyl)-6,6a,7,8,9,10-hexahydro-12H-pyrazino[2,1-c]pyrido[3,4-f][1,4]oxazepin-12-one]	0.066
C=CC(=O)N1CCN2C(=O)c3c(N4CCN(C)C[C@@H]4C)nc(-c4c(O)cccc4F)c(Cl)c3OC[C@H]2C1 [Z51, (6aR)-8-acryloyl-4-chloro-1-((S)-2,4-dimethylpiperazin-1-yl)-3-(2-fluoro-6-hydroxyphenyl)-6,6a,7,8,9,10-hexahydro-12H-pyrazino[2,1-c]pyrido[3,4-f][1,4]oxazepin-12-one]	0.142
C=CC(=O)N1CCN2C(=O)c3c(N4CCCC45CC5)nc(-c4c(O)cccc4F)c(Cl)c3OC[C@H]2C1 [Z56, (6aR)-8-acryloyl-4-chloro-3-(2-fluoro-6-hydroxyphenyl)-1-(4-azaspiro[2.4]heptan-4-yl)-6,6a,7,8,9,10-hexahydro-12H-pyrazino[2,1-c]pyrido[3,4-f][1,4]oxazepin-12-one]	0.085
C=CC(=O)N1CCN2C(=O)c3c(N4CCN(C)C[C@@H]4C)nc(-c4c(F)cccc4OC)c(F)c3OC[C@H]2C1 [Z451, (6aR)-8-acryloyl-1-((S)-2,4-dimethylpiperazin-1-yl)-4-fluoro-3-(2-fluoro-6-methoxyphenyl)-6,6 a,7,8,9,10-hexahydro-12H-pyrazino[2,1-c]pyrido[3,4-f][1,4]oxazepin-12 (6 aH)-one]	3
C=CC(=O)N1CCN2C(=O)c3c(N4CCN(C)C[C@@H]4C)nc(-c4c(O)cccc4Cl)c(Cl)c3OC[C@H]2C1 [Z452, (6aR)-8-acryloyl-4-chloro-3-(2-chloro-6-hydroxyphenyl)-1-((S)-2,4-dimethylpiperazin-1-yl)-6,6a,7,8,9,10-hexahydro-12H-pyrazino[2,1-c]pyrido[3,4-f][1,4]oxazepin-12-one]	0.0469
C=CC(=O)N1CCN2C(=O)c3c(N4CCN(C)C[C@@H]4C)nc(-c4c(F)cccc4C(F)F)c(Cl)c3OC[C@H]2C1 [Z456, (6aR)-8-acryloyl-4-chloro-3-(2-(difluoromethyl)-6-fluorophenyl)-1-((S)-2,4-dimethylpiperazin-1-yl)-6,6a,7,8,9,10-hexahydro-12H-pyrazino[2,1-c]pyrido[3,4-f][1,4]oxazepin-12-one]	0.147
C=CC(=O)N1CCN2C(=O)c3c(N4CCN(C)C[C@@H]4C)nc(C#CC)c(Cl)c3OC[C@H]2C1 [Z459, (R)-8-acryloyl-4-chloro-1-((S)-2,4-dimethylpiperazin-1-yl)-3-(prop-1-yn-1-yl)-6,6a,7,8,9,10-hexahydro-12H-pyrazino[2,1-c]pyrido[3,4-f][1,4]oxazepin-12-one]	9.41
C=CC(=O)N1CCN2C(=O)c3c(N4CCC[C@@]4(C)C(=O)NC)nc(-c4c(O)cccc4F)c(Cl)c3OC[C@H]2C1 [Z462, (2S)-1-((6aR)-8-acryloyl-4-chloro-3-(2-fluoro-6-hydroxyphenyl)-12-oxo-6,6a,7,8,9,10-hexahydro-12H-pyrazino[2,1-c]pyrido[3,4-f][1,4]oxazepin-1-yl)-N,2-dimethylpyrrolidine-2-carboxamide]	0.131
C=CC(=O)N1CCN2C(=O)c3c(N4C[C@H](N5CCN(C)CC5)C[C@@H]4C)nc(-c4ccccc4F)c(Cl)c3OC[C@H]2C1 [Z470-1]	0.258
C=CC(=O)N1CCN2C(=O)c3c(N4C[C@@H](N5CCN(C)CC5)C[C@@H]4C)nc(-c4ccccc4F)c(Cl)c3OC[C@H]2C1 [Z470-2]	0.0247

The remaining lines, values ahead:

IC50 [µM]	Structure (SMILES)
0.0234	C=CC(=O)N1CCN2C(=O)c3c(N4C[C@@H](NCC(F)(F)F)CC4(C)C)nc(-c4ccccc4F)c(Cl)c3OC[C@H]2C1 (single isomer, unassigned) [Z662-1]
0.021	C=CC(=O)N1CCN2C(=O)c3c(N4CC(O)CC4(C)C)nc(-c4c(O)cccc4F)c(Cl)c3OC[C@H]2C1 (stereo partly drawn) [Z50, (6aR)-8-amyloyl-4-chloro-3-(2-fluoro-6-hydroxyphenyl)-1-(4-hydroxy-2,2-dimethylpyrrolidin-1-yl)-6,6a,7,8,9,10-hexahydro-12H-pyrazino[2,1-c]pyrido[3,4-f][1,4]oxazepin-12-one]
0.262	C=CC(=O)N1CCN2C(=O)c3c(N4CCN(C)C[C@@H]4C)nc(-c4ccccc4F)c(Cl)c3OC[C@H]2C1 [Z407-1, (R)-8-acryloyl-4-chloro-1-((S)-2,4-dimethylpiperazin-1-yl)-3-(2-fluorophenyl)-6,6a,7,8,9,10-hexahydro-12H-pyrazino[2,1-c]pyrido[3,4-f][1,4]oxazepin-12-one]
0.0866	C=CC(=O)N1CCN2C(=O)c3c(N4CC(O)CC4(C)C)nc(-c4ccccc4Cl)c(F)c3OC[C@H]2C1 (stereo partly drawn) [Z414-1, (6aR)-8-acryloyl-3-(2-chlorophenyl)-4-fluoro-1-(4-hydroxy-2,2-dimethylpyrrolidin-1-yl)-6,6a,7,8,9,10-hexahydro-12H-pyrazino[2,1-c]pyrido[3,4-f][1,4]oxazepin-12-one]
0.0436	C=CC(=O)N1CCN2C(=O)c3c(N4C[C@@H](N(C)C)CC4(C)C)nc(-c4ccccc4F)c(Cl)c3OC[C@H]2C1 [Z453-1, (R)-8-acryloyl-4-chloro-1-((S)-4-(dimethylamino)-2,2-dimethylpyrrolidin-1-yl)-3-(2-fluorophenyl)-6,6a,7,8,9,10-hexahydro-12H-pyrazino[2,1-c]pyrido[3,4-f][1,4]oxazepin-12-one]
0.0198	C=CC(=O)N1CCN2C(=O)c3c(N4CC(N5CCN(C)CC5)CC4(C)C)nc(-c4ccccc4F)c(Cl)c3OC[C@H]2C1 (stereo partly drawn) [Z454, (6aR)-8-acryloyl-4-chloro-1-(2,2-dimethyl-4-(4-methylpiperazin-1-yl)pyrrolidin-1-yl)-3-(2-fluorophenyl)-6,6a,7,8,9,10-hexahydro-12H-pyrazino[2,1-c]pyrido[3,4-f][1,4]oxazepin-12-one]
0.133	C=CC(=O)N1CCN2C(=O)c3c(NC(C)(C)C)nc(-c4ccccc4F)c(Cl)c3OC[C@H]2C1 [Z457, (R)-8-acryloyl-1-(tert-butylamino)-4-chloro-3-(2-fluorophenyl)-6,6a,7,8,9,10-hexahydro-12H-pyrazino[2,1-c]pyrido[3,4-f][1,4]oxazepin-12-one]
0.0139	C=CC(=O)N1CCN2C(=O)c3c(N4CC(C(=O)O)CC4(C)C)nc(-c4c(O)cccc4F)c(Cl)c3OC[C@H]2C1 (stereo partly drawn) [Z458, 1-((6aR)-8-acryloyl-4-chloro-3-(2-fluoro-6-hydroxyphenyl)-12-oxo-6,6a,7,8,9,10-hexahydro-12H-pyrazino[2,1-c]pyrido[3,4-f][1,4]oxazepin-1-yl)-5,5-dimethylpyrrolidine-3-carboxylic acid]
0.331	C=CC(=O)N1CCN2C(=O)c3c(N4CCN(C)C[C@@H]4C)nc(-c4ccccc4Cl)c(Cl)c3OC[C@H]2C1 [Z461, (R)-8-acryloyl-4-chloro-3-(2-chlorophenyl)-1-((S)-2,4-dimethylpiperazin-1-yl)-6,6a,7,8,9,10-hexahydro-12H-pyrazino[2,1-c]pyrido[3,4-f][1,4]oxazepin-12-one]
1.93	C=CC(=O)N1CCN2C(=O)c3c(N4C[C@@H](C)N(C)C[C@@H]4C)nc(-c4ccccc4F)c(Cl)c3OC[C@H]2C1 [Z464]
0.0077	C=CC(=O)N1CCN2C(=O)c3c(N4CC(N5CCN(C)CC5)CC4(C)C)nc(-c4c(O)cccc4F)c(Cl)c3OC[C@H]2C1 (stereo partly drawn) [Z467, (6aR)-8-acryloyl-4-chloro-1-(2,2-dimethyl-4-(4-methylpiperazin-1-yl)pyrrolidin-1-yl)-3-(2-fluoro-6-hydroxyphenyl)-6,6a,7,8,9,10-hexahydro-12H-pyrazino[2,1-c]pyrido[3,4-f][1,4]oxazepin-12-one]
0.105	C=CC(=O)N1CCN2C(=O)c3c(N4C[C@@H](N(C)C)CC4(C)C)nc(-c4cccc(F)c4F)c(Cl)c3OC[C@H]2C1 [Z473-1, (R)-8-acryloyl-4-chloro-3-(2,3-difluorophenyl)-1-((S)-4-(dimethylamino)-2,2-dimethylpyrrolidin-1-yl)-6,6a,7,8,9,10-hexahydro-12H-pyrazino[2,1-c]pyrido[3,4-f][1,4]oxazepin-12-one]
